Structures are written as SMILES. “And” between values parts separate entries of the source, which are not always exact repeats. Equal entries are not always repeated. Inconclusive results and toxic doses are left out.

The test system of this experiment is L1210 leukemia ip in BDF1 mice, survival T/C. Put plainly: NCI In Vivo Anticancer Drug Screen. Data for tumor model L1210 Leukemia (intraperitoneal) in B6D2F1 (BDF1) mice. To be noted: endpoint: mean survival time, higher = longer survival. The gist of the method: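 Survival endpoint. Drug-treated group vs vehicle group, expressed as T divided by C. Tumor passaged by transplantation.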

[1] abbreviates: dose: 100.0 mg/kg/injection, schedule: Q01DX001 (ip), vehicle: Klucel (hydroxypropylcellulose) (HPC).
Where [2] appears, read: dose: 200.0 mg/kg/injection, schedule: Q01DX001 (ip), vehicle: Klucel (hydroxypropylcellulose) (HPC).
Where [3] appears, read: dose: 400.0 mg/kg/injection, schedule: Q01DX001 (ip), vehicle: Klucel (hydroxypropylcellulose) (HPC).
[4] abbreviates: dose: 100.0 mg/kg/injection, schedule: Q04DX003 (ip), vehicle: saline with Tween-80.
The mark [5] stands for this setting: dose: 200.0 mg/kg/injection, schedule: Q04DX003 (ip), vehicle: saline with Tween-80.
Setting [6] is: dose: 400.0 mg/kg/injection, schedule: Q04DX003 (ip), vehicle: saline with Tween-80.
Where [7] appears, read: dose: 100.0 mg/kg/injection, schedule: Q04DX003 (ip), vehicle: Klucel (hydroxypropylcellulose) (HPC).
[8] abbreviates: dose: 200.0 mg/kg/injection, schedule: Q04DX003 (ip), vehicle: Klucel (hydroxypropylcellulose) (HPC).
The mark [9] stands for this setting: dose: 400.0 mg/kg/injection, schedule: Q04DX003 (ip), vehicle: Klucel (hydroxypropylcellulose) (HPC).

Take `O=C(O)C1(NO)CCCC1`: the T/C (dose: 50.0 mg/kg/injection, schedule: Q01DX001 (ip), vehicle: saline) was 102 % of control; the T/C (dose: 100.0 mg/kg/injection, schedule: Q01DX001 (ip), vehicle: saline) is 121 % of control; the T/C (dose: 400.0 mg/kg/injection, schedule: Q01DX001 (ip), vehicle: saline) is 110 % of control.
Take `CC(C)=CCC1=C(Cl)C(=O)c2ccccc2C1=O`: the T/C is, setting by setting: under setting [1], 96 % of control; under setting [2], 104 % of control; under setting [3], 101 % of control.
In the case of `O=[N+]([O-])c1ccc(Cl)c(CNc2ncnc3nc[nH]c23)c1`, the T/C by setting is: under setting [4], 92 % of control; under setting [5], 93 % of control; under setting [6], 106 % of control.
As for `Oc1c(Br)cc(Br)cc1C=Nc1ccccc1.Oc1c(Br)cc(Br)cc1C=Nc1ccccc1.[Co]`, the T/C runs as follows: (dose: 100.0 mg/kg/injection, schedule: Q04DX003 (ip), vehicle: saline) 92 % of control; (dose: 200.0 mg/kg/injection, schedule: Q04DX003 (ip), vehicle: saline) 98 % of control; (dose: 400.0 mg/kg/injection, schedule: Q04DX003 (ip), vehicle: saline) 98 % of control.
For `c1ccc(CC2CCCC2)cc1`, the T/C was 93 % of control under setting [7]; 95 % of control under setting [8]; 106 % of control (dose: 300.0 mg/kg/injection, schedule: Q04DX003 (ip), vehicle: Klucel (hydroxypropylcellulose) (HPC)).
With `CCCCC(CC)COC(=O)C[N+](C)(C)CCOC(c1ccccc1)c1ccccc1` (stereo not given), the T/C is 91 % of control (dose: 6.25 mg/kg/injection, schedule: Q04DX003 (ip), vehicle: saline with Tween-80) and 97 % of control (dose: 12.5 mg/kg/injection, schedule: Q04DX003 (ip), vehicle: saline with Tween-80).
With `O=C(Nc1ccc(CCNC2=NCCN2)cc1)c1ccc(C(=O)Nc2ccc(CCNC3=NCCN3)cc2)cc1`, the T/C reads like this: (dose: 1.0 mg/kg/injection, schedule: Q01DX Z (ip), vehicle: water) 107 % of control; (dose: 1.5 mg/kg/injection, schedule: Q01DX Z (ip), vehicle: water) 109 % of control; (dose: 3.0 mg/kg/injection, schedule: Q01DX Z (ip), vehicle: water) 158 % of control; (dose: 3.75 mg/kg/injection, schedule: Q01DX Z (ip), vehicle: water) 167 % of control; (dose: 7.5 mg/kg/injection, schedule: Q01DX Z (ip), vehicle: water) 151 % of control; (dose: 10.0 mg/kg/injection, schedule: Q01DX Z (ip), vehicle: carboxymethylcellulose (CMC)) 216 % of control. The T/C is 92 % of control (dose: 15.0 mg/kg/injection, schedule: Q01DX Z (ip), vehicle: water); 180 % of control (dose: 20.0 mg/kg/injection, schedule: Q01DX Z (ip), vehicle: carboxymethylcellulose (CMC)); 118 % of control (dose: 40.0 mg/kg/injection, schedule: Q01DX Z (ip), vehicle: carboxymethylcellulose (CMC)); 101 % of control (dose: 62.0 mg/kg/injection, schedule: Q01DX Z (oral), vehicle: water); 108 % of control (dose: 80.0 mg/kg/injection, schedule: Q01DX Z (ip), vehicle: carboxymethylcellulose (CMC)); 100 % of control (dose: 125.0 mg/kg/injection, schedule: Q01DX Z (oral), vehicle: water). Moreover, the T/C is 109 % of control (dose: 250.0 mg/kg/injection, schedule: Q01DX Z (oral), vehicle: water) and 101 % of control (dose: 500.0 mg/kg/injection, schedule: Q01DX Z (oral), vehicle: water).
Regarding `CC(=O)OCC1OC(OC2C(COC(C)=O)OC(Sc3ccccc3)C(OC(C)=O)C2OC(C)=O)C(OC(C)=O)C(OC(C)=O)C1OC(C)=O` (stereo not given), the T/C (dose: 3.13 mg/kg/injection, schedule: Q01DX009 (ip), vehicle: saline with Tween-80) was 89 % of control; the T/C (dose: 12.5 mg/kg/injection, schedule: Q01DX009 (ip), vehicle: saline with Tween-80) was 89 % of control; the T/C (dose: 25.0 mg/kg/injection, schedule: Q01DX009 (ip), vehicle: saline with Tween-80) is 90 % of control; the T/C (dose: 25.0 mg/kg/injection, schedule: Q04DX003 (ip), vehicle: saline with Tween-80) is 95 % of control; the T/C (dose: 50.0 mg/kg/injection, schedule: Q01DX009 (ip), vehicle: saline with Tween-80) is 90 % of control; the T/C (dose: 50.0 mg/kg/injection, schedule: Q04DX003 (ip), vehicle: saline with Tween-80) is 95 % of control. Further, the T/C was 88 % of control (dose: 100.0 mg/kg/injection, schedule: Q01DX009 (ip), vehicle: saline with Tween-80); 92 % of control under setting [4]; 94 % of control (dose: 200.0 mg/kg/injection, schedule: Q01DX009 (ip), vehicle: saline with Tween-80); 91 % of control under setting [5]; 87 % of control under setting [6].
For the compound `O=[N+]([O-])c1ccccc1N1N=NC2CC/C(=C\c3ccc(Cl)cc3)C21N1CCOCC1` (stereo not given), the T/C is 108 % of control (dose: 100.0 mg/kg/injection, schedule: Q04DX002 (ip), vehicle: saline); 89 % of control (dose: 200.0 mg/kg/injection, schedule: Q04DX002 (ip), vehicle: saline); 92 % of control (dose: 400.0 mg/kg/injection, schedule: Q04DX002 (ip), vehicle: saline).
Regarding `O=NN(CCCl)C(=O)Nc1c[nH]c2ccccc12`, the T/C was 116 % of control (dose: 118.0 mg/kg/injection, schedule: Q01DX009 (ip), vehicle: carboxymethylcellulose (CMC)); 116 % of control (dose: 177.0 mg/kg/injection, schedule: Q01DX009 (ip), vehicle: carboxymethylcellulose (CMC)); 123 % of control (dose: 266.0 mg/kg/injection, schedule: Q01DX009 (ip), vehicle: carboxymethylcellulose (CMC)); 124 % of control (dose: 400.0 mg/kg/injection, schedule: Q01DX009 (ip), vehicle: carboxymethylcellulose (CMC)); 156 % of control (dose: 600.0 mg/kg/injection, schedule: Q01DX009 (ip), vehicle: carboxymethylcellulose (CMC)).
As for `COc1ccccc1-n1c(O)c(N=Nc2ccc(Br)cc2)c(=O)n(-c2ccccc2OC)c1=S`, the T/C runs as follows: under setting [1], 103 % of control; under setting [2], 105 % of control; under setting [3], 92 % of control.
Consider `O=C(NS(=O)(=O)c1ccc(Cl)cc1)OCCCl`, for which the T/C runs as follows: under setting [7], 96 % of control; under setting [8], 95 % of control; under setting [9], 98 % of control.
`CSc1ccc(OC(=O)Nc2cccc(F)c2)cc1`: the T/C by setting is: under setting [1], 88 % of control; (dose: 100.0 mg/kg/injection, schedule: Q01DX009 (ip), vehicle: Klucel (hydroxypropylcellulose) (HPC)) 105 % of control and 109 % of control; (dose: 100.0 mg/kg/injection, schedule: Q04DX002 (ip), vehicle: Klucel (hydroxypropylcellulose) (HPC)) 101 % of control and 91 % of control; under setting [7], 104 % of control and 124 % of control; under setting [2], 101 % of control; (dose: 200.0 mg/kg/injection, schedule: Q01DX009 (ip), vehicle: Klucel (hydroxypropylcellulose) (HPC)) 100 % of control and 101 % of control. Further, the T/C (dose: 200.0 mg/kg/injection, schedule: Q04DX002 (ip), vehicle: Klucel (hydroxypropylcellulose) (HPC)) is 94 % of control and 98 % of control; the T/C under setting [8] is 107 % of control and 120 % of control; the T/C under setting [3] is 104 % of control; the T/C (dose: 400.0 mg/kg/injection, schedule: Q01DX009 (ip), vehicle: Klucel (hydroxypropylcellulose) (HPC)) was 109 % of control and 90 % of control; the T/C (dose: 400.0 mg/kg/injection, schedule: Q04DX002 (ip), vehicle: Klucel (hydroxypropylcellulose) (HPC)) was 93 % of control and 94 % of control; the T/C under setting [9] was 104 % of control.
As to `Cc1ccc(-c2ccccc2)n1-c1ccccc1O`, the T/C is, setting by setting: (dose: 50.0 mg/kg/injection, schedule: Q01DX001 (ip), vehicle: other) 104 % of control; (dose: 100.0 mg/kg/injection, schedule: Q01DX001 (ip), vehicle: other) 102 % of control; (dose: 200.0 mg/kg/injection, schedule: Q01DX001 (ip), vehicle: other) 96 % of control; (dose: 400.0 mg/kg/injection, schedule: Q01DX001 (ip), vehicle: other) 98 % of control.
With `CC1(C)CC(C(=O)O)C(=O)O1` (stereo not given), the T/C (dose: 75.0 mg/kg/injection, schedule: Q01DX001 (ip), vehicle: saline) was 97 % of control; the T/C (dose: 150.0 mg/kg/injection, schedule: Q01DX001 (ip), vehicle: saline) is 103 % of control; the T/C (dose: 300.0 mg/kg/injection, schedule: Q01DX001 (ip), vehicle: saline) is 98 % of control.

The record behind these values is PubChem BioAssay AID248 (DTP/NCI, 2004).
